The values below come from ChEMBL document CHEMBL5370664, “Resveratrol Derivatives Inhibit Transthyretin Fibrillization: Structural Insights into the Interactions between Resveratrol Derivatives and Transthyretin” (J Med Chem, 2023).

Active and inactive are the calls of the source. No cut-off for these calls is given here.

As usually defined, the Ki is a measure of affinity in units of concentration, obtained from inhibition or displacement.

Assay [1] addresses T1, Transthyretin (Homo sapiens, UniProt P02766, V50M). Kind of assay: Inhibition of recombinant N-terminal hexa-histidine tagged TTR V30M mutant (unknown origin) expressed in Escherichia coli assessed as acid mediated amyloid-like fibril formation by measuring turbidity incubated for 1 week at 310K in presence of sodium acetate by absorbance based assay.
Assay [2] deals with T1, Transthyretin. Kind of assay: Binding affinity to recombinant N-terminal hexa-histidine tagged TTR V30M mutant (unknown origin) expressed in Escherichia coli assessed as quenching of intrinsic tryptophan fluorescence by measuring apparent dissociation constant incubated for 60 mins by fluorescence based analysis. The conditions noted are these: read-out: Kd(app).
For assay [3], the system named is Transthyretin (Homo sapiens), P02766 [V50M]. The experiment in a line: Inhibition of recombinant N-terminal hexa-histidine tagged TTR V30M mutant (unknown origin) expressed in Escherichia coli assessed as acid mediated amyloid-like fibril formation by measuring fluorescence intensity at 1 uM incubated for 4 days at 310K in presence of sodium acetate by thioflavin T based fluorescence spectrophotometric analysis. The conditions noted are these: time 4.0 day.

In assay [4] the target is T1, Transthyretin. The experiment in a line: Binding affinity to N-terminal hexa-histidine tagged TTR V30M mutant (unknown origin) expressed in Escherichia coli assessed as dissociation constant at 60 uM by ITC assay. On the technique in general: Isothermal titration calorimetry measures the heat released or taken up as one component is titrated into another.
Assay [5] deals with Transthyretin (Homo sapiens), P02766 [V50M]. Kind of assay: Binding affinity to N-terminal hexa-histidine tagged TTR V30M mutant (unknown origin) expressed in Escherichia coli assessed as gibbs free energy change at 60 uM by ITC assay.
For assay [6] the test system is unchanged. The experiment in a line: Binding affinity to N-terminal hexa-histidine tagged TTR V30M mutant (unknown origin) expressed in Escherichia coli assessed as change in enthalpy at 60 uM by ITC assay.
For assay [7] the test system is unchanged. Kind of assay: Binding affinity to N-terminal hexa-histidine tagged TTR V30M mutant (unknown origin) expressed in Escherichia coli assessed as change in entropy at 60 uM by ITC assay.

Consider `COc1cc(/C=C/c2ccc(O)cc2)cc(OC)c1` [PTEROSTILBENE], for which the inhibition constant (Ki) on Transthyretin [1] is 3500 nM. For the same compound, the figures for the Kd on Transthyretin [2] and on Transthyretin [4] were 1900 nM and 4600 nM, respectively. In assay [3], the inhibition entry was “Active”. Further, in assay [5], the deltaG is -7.3 kcal/mol. Besides, in assay [6], the deltaH is -14 kcal/mol. In addition, the -TdeltaS in assay [7] was 6.8 kcal/mol.
For the compound `COc1cc(/C=C/c2ccc(OC)c(OC)c2)cc(OC)c1` [(E)-3,4,3',5'-TETRAMETHOXYSTILBENE], at Transthyretin [1], the inhibitory constant (Ki) worked out at 49000 nM. Further, on Transthyretin [2], the Kd was 6900 nM. The inhibition result in assay [3] is “inactive”.
Consider `Oc1cc(O)cc(/C=C/c2ccc(O)c(O)c2)c1` [PICEATANNOL], for which, at Transthyretin [1], the inhibition constant (Ki) came out at 5400 nM. Moreover, the results for the Kd at Transthyretin [2] and at Transthyretin [4] were 2100 nM and 1500 nM, respectively. Moreover, the inhibition result in assay [3] is “Active”. The deltaG in assay [5] was -8 kcal/mol. Moreover, in assay [6], the deltaH is -14 kcal/mol. For the same compound, in assay [7], the -TdeltaS is 6.4 kcal/mol.
Consider `COc1ccc(/C=C/c2cc(OC)cc(OC)c2)cc1` [TRISMETHOXYRESVERATROL], for which the Kd on Transthyretin [2] was 4100 nM. Besides, in assay [3], the inhibition result was “inactive”.
Regarding `COc1cc(/C=C/c2cc(O)cc(O)c2)ccc1O`, at Transthyretin [1], the inhibition constant (Ki) is 3200 nM. Besides, the values for the Kd at Transthyretin [2] and on Transthyretin [4] were 730 nM and 1200 nM, respectively. Moreover, in assay [3], the inhibition entry is “Active”. The deltaG in assay [5] is -8.1 kcal/mol. The deltaH in assay [6] was -13 kcal/mol. In addition, the -TdeltaS in assay [7] was 4.7 kcal/mol.
`CC(=O)Oc1ccc(/C=C/c2cc(OC(C)=O)cc(OC(C)=O)c2)cc1` [TRIACETYLRESVERATROL]: the inhibitory constant (Ki) on Transthyretin [1] worked out at 2200 nM. Further, in assay [3], the inhibition result was “Active”.
Regarding `COc1cc(O)cc(/C=C/c2ccc(O)cc2)c1`, on Transthyretin [1], the Ki is 3400 nM. In addition, the Kd on Transthyretin [2] was 1200 nM; on Transthyretin [4] it was 2400 nM. The inhibition entry in assay [3] was “Active”. In assay [5], the deltaG is -7.7 kcal/mol. Further, the deltaH in assay [6] is -14 kcal/mol. Also, the -TdeltaS in assay [7] turned out to be 6.2 kcal/mol.
With `O=C(O)c1ccc2nc(-c3cc(Cl)cc(Cl)c3)oc2c1`, the inhibition result in assay [3] was “Active”. Moreover, the deltaH in assay [6] is -5 kcal/mol. The -TdeltaS in assay [7] was -4 kcal/mol.
For the compound `Oc1ccc(/C=C/c2cc(O)cc(O)c2)cc1` [RESVERATROL], the Ki at Transthyretin [1] was determined as 2700 nM. Also, the Kd was 1400 nM at Transthyretin [2] and 1500 nM on Transthyretin [4]. Besides, the inhibition result in assay [3] was “Active”. For the same compound, the deltaG in assay [5] is -8 kcal/mol. In addition, the deltaH in assay [6] is -15 kcal/mol. Also, the -TdeltaS in assay [7] was 6.6 kcal/mol.
On to `Oc1cc(O)cc(/C=C/c2c(O)cccc2O)c1`, for which the Ki on Transthyretin [1] was found to be 54000 nM. The Kd at Transthyretin [2] worked out at 14000 nM; at Transthyretin [4], 11000 nM. Also, the inhibition entry in assay [3] is “inactive”. The deltaG in assay [5] was -6.8 kcal/mol. The deltaH in assay [6] is -8.5 kcal/mol. For the same compound, the -TdeltaS in assay [7] came out at 1.7 kcal/mol.
Consider `Oc1cc(O)cc(/C=C/c2ccc(O)cc2O)c1` [OXYRESVERATROL], for which the Ki at Transthyretin [1] came to 4500 nM. The Kd at Transthyretin [2] was found to be 2400 nM; on Transthyretin [4], 1400 nM. Moreover, the inhibition result in assay [3] was “Active”. Besides, the deltaG in assay [5] was -8.1 kcal/mol. Also, the deltaH in assay [6] was -16 kcal/mol. Further, the -TdeltaS in assay [7] turned out to be 7.5 kcal/mol.
For `O=C(O)c1cc(-c2ccc(F)cc2F)ccc1O`, the inhibition result in assay [3] is “Active”. The deltaH in assay [6] is -13 kcal/mol. Besides, the -TdeltaS in assay [7] amounted to 5.2 kcal/mol.
